Measurements published in ChEMBL document CHEMBL4400546, “A Cinchona Alkaloid Antibiotic That Appears To Target ATP Synthase in Streptococcus pneumoniae” (J Med Chem, 2019).

Columns and labels:
[1] = Cytotoxicity against human HepG2 cells assessed as reduction in cell viability after 48 hrs by Alamar Blue assay; format: cell-based
[2] = tested on: Streptococcus pneumoniae; experiment: Antibacterial activity against Streptococcus pneumoniae D39 after 20 hrs by CLSI-based microdilution method; format: functional; conditions: D39, 20 h

CC=CC1C[N@]2CC[C@H]1C[C@H]2[C@H](O)c1ccnc2ccc(OC)cc12 (stereo partly specified)
CC50 at 48 h [1]: > 100 µM
MIC [2]: 12 µM

CC[C@H]1C[N@]2CC[C@H]1C[C@H]2[C@H](O)c1ccnc2ccc(OC3CCCC3)cc12
CC50 at 48 h [1]: > 100 µM
MIC [2]: 5 µM

COc1ccc2nccc([C@@H](O)[C@@H]3C[C@@H]4CC[N@@]3C/C4=N/OCC3CC3)c2c1
CC50 at 48 h [1]: > 100 µM
MIC [2]: 42 to 84 µM

CCCCOc1ccc2nccc([C@@H](O)[C@@H]3C[C@@H]4CC[N@@]3C[C@@H]4CC)c2c1
CC50 at 48 h [1]: 41 µM
MIC [2]: 22 µM

COc1ccc2nccc([C@@H](O)[C@@H]3C[C@@H]4CC[N@@]3CC4=O)c2c1
CC50 at 48 h [1]: > 100 µM
MIC [2]: > 410 µM

CCON=C1C[N@]2CC[C@H]1C[C@H]2[C@H](O)c1ccnc2ccc(OC)cc12
CC50 at 48 h [1]: > 100 µM
MIC [2]: 360 µM

C=C[C@H]1C[N@@]2CC[C@H]1C[C@H]2[C@H](O)c1ccnc2ccc(OC)cc12 [QUININE]
CC50 at 48 h [1]: > 100 µM

COc1ccc2nccc([C@@H](O)[C@@H]3C[C@@H]4CC[N@@]3C[C@@H]4[C@H](O)CO)c2c1
CC50 at 48 h [1]: > 100 µM
MIC [2]: > 357 µM

CC=C1C[N@]2CC[C@H]1C[C@H]2[C@H](O)c1ccnc2ccc(OC(C)C)cc12
CC50 at 48 h [1]: 54 µM
MIC [2]: 1 µM

CON=C1C[N@]2CC[C@H]1C[C@H]2[C@H](O)c1ccnc2ccc(OC)cc12
CC50 at 48 h [1]: > 100 µM
MIC [2]: 375 to 750 µM

C=CCOc1ccc2nccc([C@@H](O)[C@@H]3C[C@@H]4CC[N@@]3C[C@@H]4CC)c2c1
CC50 at 48 h [1]: 78 µM
MIC [2]: 11 to 22 µM

CC[C@H]1C[N@]2CC[C@H]1C[C@H]2[C@H](O)c1ccnc2ccc(OCC3CC3)cc12
CC50 at 48 h [1]: 87 µM
MIC [2]: 22 µM

C=CCOc1ccc2nccc([C@@H](O)[C@@H]3C[C@@H]4CC[N@@]3CC4=CC)c2c1
CC50 at 48 h [1]: 54 µM
MIC [2]: 4 µM

COc1ccc2nccc([C@@H](O)[C@@H]3C[C@@H]4CC[N@@]3CC4=NOCC(F)(F)F)c2c1
CC50 at 48 h [1]: > 100 µM
MIC [2]: > 313 µM

CC[C@H]1C[N@]2CC[C@H]1C[C@@H]2[C@H](F)c1ccnc2ccc(OC)cc12
CC50 at 48 h [1]: > 100 µM
MIC [2]: > 390 µM

CC=C1C[N@]2CC[C@H]1C[C@H]2[C@H](O)c1ccnc2ccc(OCC(F)(F)F)cc12
CC50 at 48 h [1]: > 100 µM
MIC [2]: 5 µM

CC=C1C[N@]2CC[C@H]1C[C@H]2[C@H](O)c1ccnc2ccc(OCc3ccccc3)cc12
CC50 at 48 h [1]: 47 µM
MIC [2]: 40 µM

CC[C@H]1CN2CC[C@H]1C[C@H]2[C@H](O)c1ccnc2ccc(OC)cc12 [HYDROQUININE]
CC50 at 48 h [1]: > 100 µM
MIC [2]: 98 µM

C=C[C@H]1CN2CC[C@@H]1C[C@H](F)[C@H]2c1ccnc2ccc(OC)cc12
CC50 at 48 h [1]: > 100 µM
MIC [2]: 392 µM

CC=C1C[N@]2CC[C@H]1C[C@@H]2[C@@H](O)c1ccnc2ccc(OC)cc12
CC50 at 48 h [1]: > 100 µM
MIC [2]: > 395 µM

COc1ccc2nccc([C@@H](O)[C@@H]3C[C@@H]4CC[N@@]3C/C4=N/OC(C)C)c2c1
CC50 at 48 h [1]: > 100 µM
MIC [2]: 43 to 86 µM

COc1ccc2nccc([C@@H](O)[C@@H]3C[C@@H]4CC[N@@]3CC4=NOCc3ccccc3)c2c1
CC50 at 48 h [1]: > 100 µM
MIC [2]: 77 µM

CC[C@H]1C[N@]2CC[C@H]1C[C@H]2[C@H](O)c1ccnc2ccc(OCc3ccccc3)cc12
CC50 at 48 h [1]: 76 µM
MIC [2]: 16 to 32 µg/mL

CC=C1C[N@]2CC[C@H]1C[C@@H]2[C@H](F)c1ccnc2ccc(OC)cc12
CC50 at 48 h [1]: > 100 µM
MIC [2]: 392 µM

CCCO/N=C1/C[N@]2CC[C@H]1C[C@H]2[C@H](O)c1ccnc2ccc(OC)cc12
CC50 at 48 h [1]: > 100 µM
MIC [2]: 86 µM

CC[C@H]1C[N@]2CC[C@H]1C[C@H]2[C@H](O)c1ccnc2ccc(OC3CCC3)cc12
CC50 at 48 h [1]: 51 µM
MIC [2]: 5 µM

CC[C@H]1C[N@]2CC[C@H]1C[C@H]2[C@H](O)c1ccnc2ccc(OC(C)C)cc12
CC50 at 48 h [1]: 86 µM
MIC [2]: 11 µM

CC=C1C[N@]2CC[C@H]1C[C@H]2[C@H](O)c1ccnc2ccc(OCCC)cc12
CC50 at 48 h [1]: 51 µM
MIC [2]: 3 to 6 µM

CC=C1C[N@]2CC[C@H]1C[C@H]2[C@@H](F)c1ccnc2ccc(OC)cc12
CC50 at 48 h [1]: > 100 µM
MIC [2]: > 392 µM

COc1ccc2nccc([C@@H](O)[C@@H]3C[C@@H]4CC[N@@]3C/C4=N/OC3CCCC3)c2c1
CC50 at 48 h [1]: > 100 µM
MIC [2]: 40 to 81 µM

CCOC(=O)CCCON=C1C[N@]2CC[C@H]1C[C@H]2[C@H](O)c1ccnc2ccc(OC)cc12
CC50 at 48 h [1]: > 100 µM
MIC [2]: 299 µM

COC(=O)CCCON=C1C[N@]2CC[C@H]1C[C@H]2[C@H](O)c1ccnc2ccc(OC)cc12
CC50 at 48 h [1]: > 100 µM
MIC [2]: 299 µM

CCCCON=C1C[N@]2CC[C@H]1C[C@H]2[C@H](O)c1ccnc2ccc(OC)cc12
CC50 at 48 h [1]: > 100 µM
MIC [2]: 21 to 42 µM

CC=C1C[N@]2CC[C@H]1C[C@H]2[C@H](O)c1ccnc2ccc(OCCCC)cc12
CC50 at 48 h [1]: 27 µM
MIC [2]: 11 µM

CC=C1C[N@]2CC[C@H]1C[C@H]2[C@H](O)c1ccnc2ccc(OC3CCCC3)cc12
CC50 at 48 h [1]: 48 µM
MIC [2]: 5 µM

CC[C@H]1CN2CC[C@H]1C[C@H]2[C@H](O)c1ccnc2ccc(O)cc12
CC50 at 48 h [1]: > 100 µM
MIC [2]: 204 µM

CC=C1C[N@]2CC[C@H]1C[C@H]2[C@H](O)c1ccnc2ccc(OCC)cc12
CC50 at 48 h [1]: > 100 µM
MIC [2]: 1 µM

CCCOc1ccc2nccc([C@@H](O)[C@@H]3C[C@@H]4CC[N@@]3C[C@@H]4CC)c2c1
CC50 at 48 h [1]: 57 µM
MIC [2]: 11 µM

CC[C@H]1C[N@]2CC[C@H]1C[C@H]2[C@H](O)c1ccnc2ccc(OCC(F)(F)F)cc12
CC50 at 48 h [1]: 72 µM
MIC [2]: 10 µM

C#CCON=C1C[N@]2CC[C@H]1C[C@H]2[C@H](O)c1ccnc2ccc(OC)cc12
CC50 at 48 h [1]: > 100 µM
MIC [2]: 175 µM

COc1ccc2nccc([C@@H](O)[C@@H]3C[C@@H]4CC[N@@]3CC4=NOC3CCC3)c2c1
CC50 at 48 h [1]: > 100 µM
MIC [2]: 84 µM

CC=C1C[N@]2CC[C@H]1C[C@H]2[C@H](O)c1ccnc2ccc(OC(C)CO)cc12 (mixture of isomers)
CC50 at 48 h [1]: > 100 µM
MIC [2]: 5 µM

CC=C1C[N@]2CC[C@H]1C[C@H]2[C@H](O)c1ccnc2ccc(OCC3CC3)cc12
CC50 at 48 h [1]: > 100 µM
MIC [2]: 5 µM

C=CCON=C1C[N@]2CC[C@H]1C[C@H]2[C@H](O)c1ccnc2ccc(OC)cc12
CC50 at 48 h [1]: 51 µM
MIC [2]: 174 µM

CC=C1C[N@]2CC[C@H]1C[C@H]2[C@H](O)c1ccnc2ccc(OC)cc12
CC50 at 48 h [1]: > 100 µM
MIC [2]: 12 µM

COc1ccc2nccc([C@@H](O)[C@@H]3C[C@@H]4CC[N@@]3C/C4=N/O)c2c1
CC50 at 48 h [1]: > 100 µM
MIC [2]: > 391 µM
